Results as given in PMC5630632, “Assessing inhibitors of mutant isocitrate dehydrogenase using a suite of pre-clinical discovery assays” (Scientific Reports, 2017).

Target: P-glycoprotein (P-gp, MDR1, ABCB1) (Homo sapiens, UniProt P08183)
Experiment: Bidirectional MDCK-MDR1 permeability assay (Cyprotex)
Conditions: dog, MDCK-MDR1

P-glycoprotein (P-gp, MDR1, ABCB1), sequence (P08183 whole entry): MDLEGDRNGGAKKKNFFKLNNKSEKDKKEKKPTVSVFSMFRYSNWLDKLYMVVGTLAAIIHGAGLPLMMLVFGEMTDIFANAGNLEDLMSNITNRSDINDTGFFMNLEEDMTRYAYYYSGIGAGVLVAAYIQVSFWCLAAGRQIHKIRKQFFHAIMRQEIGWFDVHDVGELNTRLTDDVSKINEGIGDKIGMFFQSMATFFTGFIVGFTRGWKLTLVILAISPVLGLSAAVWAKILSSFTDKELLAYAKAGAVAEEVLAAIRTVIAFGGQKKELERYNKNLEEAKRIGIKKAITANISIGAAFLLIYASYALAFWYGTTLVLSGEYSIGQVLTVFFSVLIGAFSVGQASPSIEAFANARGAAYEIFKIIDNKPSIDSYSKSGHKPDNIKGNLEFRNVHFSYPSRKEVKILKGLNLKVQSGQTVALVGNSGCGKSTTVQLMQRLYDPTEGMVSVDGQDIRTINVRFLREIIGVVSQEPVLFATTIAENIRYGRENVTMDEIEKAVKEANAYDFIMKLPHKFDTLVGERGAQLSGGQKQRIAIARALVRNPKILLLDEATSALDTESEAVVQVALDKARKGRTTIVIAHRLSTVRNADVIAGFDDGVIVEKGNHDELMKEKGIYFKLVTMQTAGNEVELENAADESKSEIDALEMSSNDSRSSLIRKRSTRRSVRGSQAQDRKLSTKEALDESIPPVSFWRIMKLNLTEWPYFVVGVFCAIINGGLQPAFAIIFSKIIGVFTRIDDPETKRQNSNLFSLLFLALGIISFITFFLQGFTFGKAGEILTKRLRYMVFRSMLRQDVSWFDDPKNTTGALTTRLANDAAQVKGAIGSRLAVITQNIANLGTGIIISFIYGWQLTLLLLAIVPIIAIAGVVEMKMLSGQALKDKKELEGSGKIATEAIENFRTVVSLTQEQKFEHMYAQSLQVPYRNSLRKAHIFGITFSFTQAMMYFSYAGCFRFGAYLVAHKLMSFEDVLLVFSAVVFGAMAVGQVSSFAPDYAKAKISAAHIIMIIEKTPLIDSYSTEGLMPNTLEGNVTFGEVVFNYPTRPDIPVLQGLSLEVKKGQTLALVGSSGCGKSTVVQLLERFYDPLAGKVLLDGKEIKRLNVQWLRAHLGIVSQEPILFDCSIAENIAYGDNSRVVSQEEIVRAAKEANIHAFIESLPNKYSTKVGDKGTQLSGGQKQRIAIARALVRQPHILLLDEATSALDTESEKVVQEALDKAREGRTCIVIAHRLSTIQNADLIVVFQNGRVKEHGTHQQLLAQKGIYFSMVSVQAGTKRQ

SMILES: CN(C)C(=O)C(CCN1CCC(O)(c2ccc(Cl)cc2)CC1)(c1ccccc1)c1ccccc1 [loperamide]
- efflux ratio at 2 h, 10 µM: ~350
